Patent publication US10738093B2, “Discovery of cationic nonribosomal peptides as Gram-negative antibiotics through global genome mining” (The Hong Kong University of Science and Technology, priority 2018, dated 2020)
≈ marks a conversion by molar mass, not a printed value. Like-named read-outs stand apart in the source and are kept apart here. Positions of bridges follow the written chain, without caps; N, C: chain ends. Non-standard residues stand in square brackets, D forms with d. Residues, ends and D or L forms follow the SMILES beside them. *: point of attachment. Octanoyl(7-Me) = CC(C)CCCCCC(=O)*; dOrn = NCCC[C@@H](N)C(=O)O; Orn = NCCC[C@H](N)C(=O)O

Experiments:
[1] = test system: Escherichia coli ATCC 25922; experiment: microbe, parasite or virus in culture; type: cell-based
Experimental: (§1) Minimum inhibitory concentration (MIC) was determined by broth microdilution according to CLSI guidelines. The test medium for most species was Mueller-Hinton broth (MHB). Bacteria were grown overnight to early stationary phase and adjusted in MHB to 5.0×10^5 colony-forming units per mL (c.f.u./mL) in the wells of 96-well microtiter plates, mixed with varying concentrations of test compounds and incubated at 37° C. for 24 h. […] MHBs containing 10% fetal bovine serum (Gibco), 21 mM MgCl, or 1.0 mg/ml LPS (lipopolysaccharides from Escherichia coli O55:B5, Sigma-Aldrich) were used to test their inhibitory effects.

Acinetobacter baumannii = type: cell-based; details: Acinetobacter baumannii; for MIC Ab: Table 2
Experimental: as §1

Bacillus subtilis 168 = type: cell-based; details: for MIC Bs: Table 2, B. subtilis 168
Experimental: as §1

Candida albicans = type: cell-based; details: Candida albicans; for MIC Ca: Table 2
Experimental: as §1

[2] = test system: Enterobacter cloacae NRRL-B-413; type: cell-based; details: Enterobacter cloacae NRRL-B-413; for MIC En: Table 2
Experimental: as §1

[3] = test system: Methicillin-resistant Staphylococcus aureus ATCC 43300; type: cell-based; details: for MIC MRSA: Table 2, Methicillin-resistant Staphylococcus aureus ATCC 43300
Experimental: as §1

[4] = test system: Pseudomonas aeruginosa PAO1; type: cell-based
Experimental: as §1

[5] = test system: Saccharomyces cerevisiae VL-48; experiment: MIC, Saccharomyces cerevisiae; type: cell-based; details: for MIC Sc: Table 2, Saccharomyces cerevisiae VL-48
Experimental: as §1

[6] = test system: Escherichia coli ATCC 25922; experiment: Resistance acquisition during serial passaging; type: cell-based; details: serial passaging at subinhibitory concentrations over 30 days
Experimental: Escherichia coli ATCC 25922 was inoculated into MHB overnight at 37° C. with continuous shaking. Cells were diluted 10,000 times in MHB to about 1×10^6 c.f.u./mL. […] Plates with bacteria were incubated at 37° C. without shaking. […] This process was repeated for 30 d, and the final MIC was confirmed by the same antibacterial assay described above. The experiment was performed in quadruplicate, and on each day, the sample that developed the highest resistance was measured to plot the curve.

[7] = test system: Colistin-resistant E. coli (E. coli ATCC 25922 carrying mcr-1); type: cell-based, Escherichia coli
Experimental: as §1

E. coli Top10 [8] = type: cell-based, Escherichia coli; details: E. coli Top10
Experimental: as §1

[9] = test system: Klebsiella pneumoniae NRRL-B-408; type: cell-based; details: Klebsiella pneumoniae NRRL-B-408
Experimental: as §1

[10] = test system: K. pneumoniae NRRL-B-3521; type: cell-based, Klebsiella pneumoniae; details: K. pneumoniae NRRL-B-3521
Experimental: as §1

E. cloacae NRRL-B-425 = type: cell-based, Enterobacter cloacae; details: E. cloacae NRRL-B-425
Experimental: as §1

E. coli Top10 [11] = experiment: Time-kill assay; type: cell-based, Escherichia coli; details: 10 times the MIC
Experimental: An overnight culture of E. coli Top10 or Pseudomonas aeruginosa PAO1 cells was diluted 1:10,000 in MHB and incubated at 37° C. with agitation at 180 rpm for 2 h (early exponential). The bacteria were then challenged with antibiotics at 10×MIC, brevicidine (20 μg/ml), laterocidine (20 μg/ml) or polymyxin B (10 μg/ml) at room temperature without shaking. An untreated sample of cells was used as a negative control. At intervals, 10 μL aliquots were removed, centrifuged at 10,000 g for 1 min and resuspended in 1.0 mL of sterile PBS. Tenfold-serially-diluted suspensions were plated on MHB agar plates and incubated at 37° C. overnight. Colonies were counted and the number of c.fu. per mL was calculated. For analysis of lysis, 300 μL of culture (OD600=1.0) were treated with 10×MIC of antibiotics for 24 h. Experiments were performed in triplicate.

[12] = LPS binding by isothermal titration calorimetry; design: species or system Escherichia coli; details: ITC, FIGS. 18a-18b
Experimental: Microcalorimetric experiments of peptide binding to LPS were performed on an MCS isothermal titration calorimeter (ITC) (Microcal, Northampton, Mass.) at 37° C. LPS was prepared as a 50 μM aqueous suspension in 20 mM HEPES (pH 7.0) buffer by suspension, sonication and temperature cycling between 5° C. and 70° C. This suspension was stored at 4° C. overnight prior to use. 100 μM peptide solutions (brevicidine and polymyxin B) were prepared in the same buffer and all solutions were degassed prior to use by stirring under vacuum for 5 min at 37° C. After thermal equilibration, 5 μL aliquots of the peptide solution were added every 3 min into the lipid-containing cell at 37° C. and stirred constantly. The change in heat during the titration steps was registered in real time and raw data were processed using the Origin® 7 software provided with the instrument. In control experiments, the corresponding peptide solution (or LPS solution) was injected into the buffer without LPS (or without peptide).

[13] = Table 2, Escherichia coli ATCC 25922
[14] = Table 2, Pseudomonas aeruginosa PAO1
[15] = E. coli ATCC 25922 + LPS (1.0 mg L^−1)
[16] = E. coli ATCC 25922 + Mg^2+ (21 mM)

Compound: CC[C@H](C)[C@@H]1NC(=O)[C@@H](NC(=O)[C@@H](N)Cc2c[nH]c3ccccc23)[C@@H](C)OC(=O)[C@@H](CO)NC(=O)CNC1=O [Compound 4] (H-WTIG[dS]; ester 2-C)
- MIC Ec [1, 13]: ND (ND >64 μg/ml)
- MIC Ab (Acinetobacter baumannii): ND (ND >64 μg/ml)
- MIC Bs (Bacillus subtilis 168): ND (ND >64 μg/ml)
- MIC Ca (Candida albicans): ND (ND >64 μg/ml)
- MIC En [2]: ND (ND >64 μg/ml)
- MIC MRSA [3]: ND (ND >64 μg/ml)
- MIC Pa [4, 14]: ND (ND >64 μg/ml)
- MIC Sc [5]: ND (ND >64 μg/ml)

Compound: NCCC[C@H](N)C(=O)NCC(=O)N[C@H](CCCN)C(=O)O [Compound 7] (H-[Orn]-Gly-[dOrn]-OH)
- MIC Ec [1, 13]: ND (ND >64 μg/ml)
- MIC Bs (Bacillus subtilis 168): ND (ND >64 μg/ml)
- MIC MRSA [3]: ND (ND >64 μg/ml)
- MIC Pa [4, 14]: ND (ND >64 μg/ml)

Compound: CC[C@H](C)[C@@H]1NC(=O)[C@@H](NC(=O)[C@@H](N)Cc2c[nH]c3ccccc23)[C@@H](C)OC(=O)CNC(=O)CNC(=O)[C@H](CC(N)=O)NC1=O [Compound 8] (H-WTINGG; ester 2-C)
- MIC Ec [1, 13]: ND (ND >64 μg/ml)
- MIC Bs (Bacillus subtilis 168): ND (ND >64 μg/ml)
- MIC MRSA [3]: ND (ND >64 μg/ml)
- MIC Pa [4, 14]: ND (ND >64 μg/ml)

Compound: CC(C)CCCCCC(=O)N[C@H](CO)C(=O)N[C@H](Cc1ccc(O)cc1)C(=O)N[C@H](Cc1c[nH]c2ccccc12)C(=O)N[C@H](CCCN)C(=O)N[C@@H](CCCN)C(=O)NCC(=O)N[C@H](CCCN)C(=O)O [Compound 9] ({Octanoyl(7-Me)}-[dS][dY][dW][dOrn][Orn]G[dOrn]-OH)
- MIC Ec [1, 13]: ND (ND >64 μg/ml)
- MIC Bs (Bacillus subtilis 168): ND (ND >64 μg/ml)
- MIC MRSA [3]: ND (ND >64 μg/ml)
- MIC Pa [4, 14]: ND (ND >64 μg/ml)

Compound: CC(C)CCCCCC(=O)N[C@H](CO)C(=O)N[C@H](Cc1ccc(O)cc1)C(=O)N[C@H](Cc1c[nH]c2ccccc12)C(=O)N[C@H](CCCN)C(=O)O [Compound 10] ({Octanoyl(7-Me)}-[dS][dY][dW][dOrn]-OH)
- MIC Ec [1, 13]: ND (ND >64 μg/ml)
- MIC Bs (Bacillus subtilis 168): ND (ND >64 μg/ml)
- MIC MRSA [3]: ND (ND >64 μg/ml)
- MIC Pa [4, 14]: ND (ND >64 μg/ml)

Compound: CC[C@H](C)[C@H](NC(=O)[C@@H](NC(=O)[C@H](Cc1c[nH]c2ccccc12)NC(=O)[C@@H](CCCN)NC(=O)CNC(=O)[C@@H](CCCN)NC(=O)[C@@H](CCCN)NC(=O)[C@@H](Cc1c[nH]c2ccccc12)NC(=O)[C@@H](Cc1ccc(O)cc1)NC(=O)[C@@H](CO)NC(=O)CCCCCC(C)C)[C@@H](C)O)C(=O)N[C@@H](CC(N)=O)C(=O)NCC(=O)NCC(=O)O [Compound 11] ({Octanoyl(7-Me)}-[dS][dY][dW][dOrn][dOrn]G[dOrn]WTINGG-OH)
- MIC Ec ([1]; ATCC 25922): 16 µg/mL (≈ 9.86 µM)
- MIC Bs (Bacillus subtilis 168): ND (ND >64 μg/ml)
- MIC MRSA [3]: ND (ND >64 μg/ml)
- MIC Pa ([4]; PAO1): 8 µg/mL (≈ 4.93 µM)

Compound: C[C@H]1COc2c(N3CCN(C)CC3)c(F)cc3c(=O)c(C(=O)O)cn1c23 [Levofloxacin, reference compound]
- MIC ([1]; Escherichia coli, ATCC25922, positive control of the mouse thigh study, read-out: MIC): 0.032 µg/mL (≈ 0.0886 µM)

Compound: O=C(O)c1cn(C2CC2)c2cc(N3CCNCC3)c(F)cc2c1=O [ciprofloxacin, reference compound]
- development of resistance [6]: rapidly developed resistance

Compound: colistin [reference compound]
- MIC ([1]; E. coli ATCC 25922 + 10% serum): 2 to 4 µg/mL
- MIC [1, 15]: >64 µg/mL
- MIC [1, 16]: >64 µg/mL
- MIC ([1]; Escherichia coli ATCC 25922): 2 µg/mL
- MIC [7]: 16 µg/mL
- MIC (E. coli Top10 [8]): 2 µg/mL
- MIC ([4]; Pseudomonas aeruginosa PAO1): 1 µg/mL

Compound: polymyxin B [reference compound]
- MIC ([1]; E. coli ATCC 25922 + 10% serum): 1 to 2 µg/mL
- MIC [1, 15]: >64 µg/mL
- MIC [1, 16]: >64 µg/mL
- MIC ([1]; Escherichia coli ATCC 25922): 1 µg/mL
- MIC Ec [1, 13]: 1 µg/mL
- MIC [7]: 16 µg/mL
- MIC (E. coli Top10 [8]): 2 µg/mL
- MIC (Acinetobacter baumannii): 4 µg/mL
- MIC Ab (Acinetobacter baumannii): 4 µg/mL
- MIC (Bacillus subtilis 168; Bacillus subtilis 168): 4 µg/mL
- MIC Bs (Bacillus subtilis 168): 4 µg/mL
- MIC (Candida albicans): >64 µg/mL
- MIC Ca (Candida albicans): ND (ND >64 μg/ml)
- MIC [2]: 8 µg/mL
- MIC En [2]: 8 µg/mL
- MIC [9]: 16 µg/mL
- MIC ([3]; Staphylococcus aureus (MRSA)): 32 µg/mL
- MIC MRSA [3]: 32 µg/mL
- MIC ([4]; Pseudomonas aeruginosa PAO1): 1 µg/mL
- MIC Pa [4, 14]: 1 µg/mL
- MIC [10]: 2 µg/mL
- MIC (E. cloacae NRRL-B-425): 64 µg/mL
- MIC ([5]; Saccharomyces cerevisiae): >64 µg/mL
- MIC Sc [5]: ND (ND >64 μg/ml)
- time of exposure to significant reduction of viable cells (E. coli Top10 [11]): 5 min
- time to killing all cells (E. coli Top10 [11]): ≤ 30 min
- binding to LPS [12]: strong binding to LPS
